The text below walks through data of the OligoGym collection.

The series addresses UBE2N. The series can be described thus: reporter assay of Huesken 2005. Conditions: siRNA. Background: Reporter assays use an easily measured gene product as a stand-in for the process of interest.

Oligonucleotides are given in HELM: sugar(base)linkage, 5' to 3'; d 2'-deoxyribose, r ribose, m 2'-O-methylribose, p phosphate. ss, as = sense and antisense strand
Also: test concentration or dose not given here.

Regarding “RNA1{r(A)p.r(U)p.r(G)p.r(U)p.r(G)p.r(G)p.r(U)p.r(C)p.r(A)p.r(U)p.r(U)p.r(G)p.r(C)p.r(U)p.r(G)p.r(G)p.r(C)p.r(C)p.r(C)p.d(T)p.d(T)}|RNA2{r(G)p.r(G)p.r(G)p.r(C)p.r(C)p.r(A)p.r(G)p.r(C)p.r(A)p.r(A)p.r(U)p.r(G)p.r(A)p.r(C)p.r(C)p.r(A)p.r(C)p.r(A)p.r(U)p.d(G)p.d(A)}$$$RNA1{StrandType:ss}|RNA2{StrandType:as}$”, the normalised inhibition (eCFP-eYFP dual reporter) is 47.1%.
The value for “RNA1{r(A)p.r(U)p.r(U)p.r(U)p.r(A)p.r(U)p.r(C)p.r(A)p.r(U)p.r(C)p.r(C)p.r(U)p.r(A)p.r(A)p.r(U)p.r(G)p.r(U)p.r(A)p.r(G)p.d(T)p.d(T)}|RNA2{r(C)p.r(U)p.r(A)p.r(C)p.r(A)p.r(U)p.r(U)p.r(A)p.r(G)p.r(G)p.r(A)p.r(U)p.r(G)p.r(A)p.r(U)p.r(A)p.r(A)p.r(A)p.r(U)p.d(T)p.d(T)}$$$RNA1{StrandType:ss}|RNA2{StrandType:as}$” was 49.2%; that for “RNA1{r(U)p.r(G)p.r(A)p.r(U)p.r(C)p.r(C)p.r(A)p.r(U)p.r(U)p.r(A)p.r(G)p.r(C)p.r(A)p.r(A)p.r(A)p.r(U)p.r(G)p.r(A)p.r(U)p.d(T)p.d(T)}|RNA2{r(A)p.r(U)p.r(C)p.r(A)p.r(U)p.r(U)p.r(U)p.r(G)p.r(C)p.r(U)p.r(A)p.r(A)p.r(U)p.r(G)p.r(G)p.r(A)p.r(U)p.r(C)p.r(A)p.d(T)p.d(C)}$$$RNA1{StrandType:ss}|RNA2{StrandType:as}$” was 70.2%.
The value for “RNA1{r(G)p.r(A)p.r(A)p.r(A)p.r(C)p.r(A)p.r(G)p.r(C)p.r(U)p.r(A)p.r(G)p.r(A)p.r(G)p.r(C)p.r(A)p.r(U)p.r(G)p.r(G)p.r(A)p.d(T)p.d(T)}|RNA2{r(U)p.r(C)p.r(C)p.r(A)p.r(U)p.r(G)p.r(C)p.r(U)p.r(C)p.r(U)p.r(A)p.r(G)p.r(C)p.r(U)p.r(G)p.r(U)p.r(U)p.r(U)p.r(C)p.d(T)p.d(A)}$$$RNA1{StrandType:ss}|RNA2{StrandType:as}$” was 100%; that for “RNA1{r(A)p.r(A)p.r(U)p.r(G)p.r(U)p.r(A)p.r(G)p.r(A)p.r(C)p.r(A)p.r(A)p.r(G)p.r(U)p.r(U)p.r(G)p.r(G)p.r(G)p.r(A)p.r(A)p.d(T)p.d(T)}|RNA2{r(U)p.r(U)p.r(C)p.r(C)p.r(C)p.r(A)p.r(A)p.r(C)p.r(U)p.r(U)p.r(G)p.r(U)p.r(C)p.r(U)p.r(A)p.r(C)p.r(A)p.r(U)p.r(U)p.d(A)p.d(G)}$$$RNA1{StrandType:ss}|RNA2{StrandType:as}$” was 93.8%; that for “RNA1{r(C)p.r(A)p.r(A)p.r(A)p.r(U)p.r(G)p.r(A)p.r(U)p.r(G)p.r(U)p.r(A)p.r(G)p.r(C)p.r(G)p.r(G)p.r(A)p.r(G)p.r(C)p.r(A)p.d(T)p.d(T)}|RNA2{r(U)p.r(G)p.r(C)p.r(U)p.r(C)p.r(C)p.r(G)p.r(C)p.r(U)p.r(A)p.r(C)p.r(A)p.r(U)p.r(C)p.r(A)p.r(U)p.r(U)p.r(U)p.r(G)p.d(C)p.d(T)}$$$RNA1{StrandType:ss}|RNA2{StrandType:as}$” was 64.2%.
For “RNA1{r(U)p.r(U)p.r(U)p.r(A)p.r(A)p.r(A)p.r(C)p.r(U)p.r(U)p.r(G)p.r(A)p.r(A)p.r(C)p.r(U)p.r(A)p.r(U)p.r(U)p.r(C)p.r(C)p.d(T)p.d(T)}|RNA2{r(G)p.r(G)p.r(A)p.r(A)p.r(U)p.r(A)p.r(G)p.r(U)p.r(U)p.r(C)p.r(A)p.r(A)p.r(G)p.r(U)p.r(U)p.r(U)p.r(A)p.r(A)p.r(A)p.d(A)p.d(G)}$$$RNA1{StrandType:ss}|RNA2{StrandType:as}$” the value was 29.9%; for “RNA1{r(U)p.r(C)p.r(C)p.r(A)p.r(G)p.r(A)p.r(U)p.r(G)p.r(A)p.r(U)p.r(C)p.r(C)p.r(A)p.r(U)p.r(U)p.r(A)p.r(G)p.r(C)p.r(A)p.d(T)p.d(T)}|RNA2{r(U)p.r(G)p.r(C)p.r(U)p.r(A)p.r(A)p.r(U)p.r(G)p.r(G)p.r(A)p.r(U)p.r(C)p.r(A)p.r(U)p.r(C)p.r(U)p.r(G)p.r(G)p.r(A)p.d(T)p.d(T)}$$$RNA1{StrandType:ss}|RNA2{StrandType:as}$”, 85.9%.
